pIC50: −log10 of the molar value.

Assay [1] deals with PDE1A (Homo sapiens (Human), UniProt P54750). Nature of the assay: PDE1 inhibition assay (PDE1A), SPA with tritium labelled cAMP. The class given is biochemical. The note with it: 15 nM tritium labelled cAMP, 1 hr at room temperature. From the text:
(§1) Table 1 lists the IC50 value for inhibition of PDE1 by the compounds of the invention. […] PDE1 assays are described in the Experimental Section.

The target in assay [2] is PDE1B (Homo sapiens (Human), UniProt Q01064). Nature of the assay: PDE1 inhibition assay (PDE1B), SPA with tritium labelled cAMP. The note with it: 15 nM tritium labelled cAMP, 1 hr at room temperature. The class given is biochemical.
Chain of PDE1B (Q01064 whole entry): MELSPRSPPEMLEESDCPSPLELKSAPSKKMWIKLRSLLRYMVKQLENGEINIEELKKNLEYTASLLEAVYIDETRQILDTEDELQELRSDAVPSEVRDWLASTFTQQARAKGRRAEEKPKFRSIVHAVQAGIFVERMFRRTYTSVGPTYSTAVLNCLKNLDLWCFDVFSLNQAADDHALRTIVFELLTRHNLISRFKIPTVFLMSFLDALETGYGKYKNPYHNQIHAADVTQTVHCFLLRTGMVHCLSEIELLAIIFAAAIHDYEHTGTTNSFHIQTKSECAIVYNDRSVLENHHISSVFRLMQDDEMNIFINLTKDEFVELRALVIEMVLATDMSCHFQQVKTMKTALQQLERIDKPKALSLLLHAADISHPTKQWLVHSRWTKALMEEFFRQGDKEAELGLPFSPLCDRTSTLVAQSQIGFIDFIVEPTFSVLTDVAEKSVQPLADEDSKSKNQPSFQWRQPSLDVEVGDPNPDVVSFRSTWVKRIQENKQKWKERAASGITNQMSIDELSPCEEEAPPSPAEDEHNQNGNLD
Excerpt: as §1

Chain of PDE1A (P54750 whole entry): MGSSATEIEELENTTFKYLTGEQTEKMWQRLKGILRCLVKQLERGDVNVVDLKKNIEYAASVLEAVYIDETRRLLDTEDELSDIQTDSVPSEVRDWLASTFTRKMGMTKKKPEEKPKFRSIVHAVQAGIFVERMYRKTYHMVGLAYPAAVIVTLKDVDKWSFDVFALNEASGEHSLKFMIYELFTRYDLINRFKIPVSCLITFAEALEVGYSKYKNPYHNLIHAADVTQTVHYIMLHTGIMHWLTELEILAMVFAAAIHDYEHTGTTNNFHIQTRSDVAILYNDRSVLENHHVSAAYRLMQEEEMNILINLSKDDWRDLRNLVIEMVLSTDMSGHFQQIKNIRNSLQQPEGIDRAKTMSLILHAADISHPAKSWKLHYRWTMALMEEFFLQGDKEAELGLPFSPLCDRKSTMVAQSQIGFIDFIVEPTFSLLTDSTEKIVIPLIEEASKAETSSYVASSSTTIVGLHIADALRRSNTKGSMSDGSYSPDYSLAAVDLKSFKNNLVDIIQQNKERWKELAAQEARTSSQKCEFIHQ

On to `CCOc1ncccc1-c1cc(NCc2ccncc2OC)c2c(n1)c(C)nn2C(C)C` [Example 172, 5-(2-ethoxy-3-pyridyl)-1-isopropyl-N-[(3-methoxy-4-pyridyl)methyl]-3-methyl-pyrazolo[4,3-b]pyridin-7-amine], for which the pIC50 – broadly, the IC50 on a negative log10 scale, so that one unit is a factor of ten – in assay [1] is 7.40; in assay [2], 8.26.

Values taken from patent US10512632B2, “1 H-pyrazolo[4,3-B]pyridines as PDE1 inhibitors” (priority 2016, dated 2019).
